Earlier results as cited in US8841297B2, “Phenylimidazole derivative as PDE10A enzyme inhibitor” (H. Lundbeck A/S, priority 2009, dated 2014).

Key:
[1] = tested on: PCP induced hyperactivity; conditions: rats; cited from earlier work
[2] = tested on: amphetamine induced hyperactivity; conditions: rats; cited from earlier work
[3] = tested on: cataleptic effect of haloperidol; conditions: rats, cited from earlier work

In the case of `COc1ccc(Cc2nccc3cc(OC)c(OC)cc23)cc1OC` [Papaverine, papaverine], the “effect on hyperactivity induced by PCP” value [1] is listed as “reduced hyperactivity”, the “reduction of amphetamine induced hyperactivity” value [2] is listed as “insignificant” and the “catalepsy on its own” value ([3]; papaverine alone) is listed as “did not cause catalepsy on its own”. The “effect on the cataleptic effect of haloperidol” value ([3]; together with haloperidol) was “potentiated the cataleptic effect”.
